Measurements: US10982196B2, “Immunotherapy targeting intracellular pathogens” (LIFE SCIENCES RESEARCH PARTNERS VZW, priority 2008, dated 2021)

How the values were obtained:
[1] = system: IDO (indolamine-2,3-dioxygenase); assay type: cell-based, BALB/c; conditions: dendritic cells pre-loaded with SEQ ID NO:5 or 7, 8 h co-culture with CD4+ T cells of mice immunised with SEQ ID NO:6 or 8; example written in present tense
dendritic cells [2] = conditions: dendritic cells loaded with peptide of SEQ ID NO:1, 2 h co-culture with CD4+ T cell line expanded with the peptide; compared with line expanded with SEQ ID NO:1; FIG. 1
Experimental: Adenovirus of serotype 5 (Ad.RR5, E1/E3-deleted) was used in these experiments. Thus, 5 μL of a solution containing 2×10^11 viral particles/ml was administered by the intravenous route to 6 weeks old C57Bl/6 mice. Ten days later, the spleen of such mice was recovered and CD4+ T cells purified by magnetic sorting.
CD4+ T cells obtained from Ad.RR5-immunized mice were cultured in the presence of T lymphocyte-depleted spleen adherent cells used as antigen-presenting cells pre-incubated with either peptide of SEQ ID NO:1 or peptide of SEQ ID NO:2. After two cycles of restimulation, the CD4+ T cell lines were allowed to rest for 10 days. […] The generation of reactive oxygen intermediates (ROI) by dendritic cells was then evaluated after 2 h of co-culture. Dendritic cells were prepared from the spleen of C57Bl/6 mice by sorting on magnetic beads coated with an anti-CD11c specific antibody.
Thus, 10^5 dendritic cells were incubated for 1 h with 10 μM DCFDA, a derivative of fluorescein used as an indicator of ROI generation. […] Fluorescence increases generated by DCFDA oxidation by reactive oxygen intermediates are read in a Facs gated on CD11c(+) cells.

dendritic cells [3] = experiment: Reactive oxygen intermediates in antigen-presenting cells co-cultured with CD4+ T cells expanded with modified ESAT-6 epitope, Facs (DCFDA); assay type: cell-based, C57Bl/6 mice; conditions: dendritic cells loaded with SEQ ID NO:3, 2 h co-culture with CD4+ T cells expanded with SEQ ID NO:4; example written in present tense
[4] = system: induced nitric oxide synthase; experiment: Reactive nitrogen intermediates in antigen-presenting cells, RT-PCR for transcripts of nitric oxide synthase; assay type: cell-based, C57Bl/6 mice; conditions: dendritic cells co-cultured 6 h with CD4+ T cells and peptide of SEQ ID NO:4; example written in present tense

Sequence: CGHCDKHIEQYLK (modified Th2R T-cell epitope; (1)..(4) thioreductase motif) [SEQ ID NO:6]
- expression of IDO in dendritic cells [1]: induces a reverse signalling leading to expression of IDO

Sequence: CGHCEKKICKMEK (modified T-cell epitope of CSP antigen Plasmodium falciparum; (1)..(4) modified T-cell epitope) [SEQ ID NO:8]
- expression of IDO in dendritic cells [1]: induces a reverse signalling leading to expression of IDO

Sequence: CHGCPTLLYVLFEV (modified T-cell epitope of capsid protein adenovirus serotype 5; (1)..(4) thioreductase motif) [SEQ ID NO:2]
- ROI produced by dendritic cells (dendritic cells [2]): significantly more ROI

Sequence: CGHCFAGIEAAAS (modified ESAT6 T-cell epitope; (1)..(4) thioreductase motif) [SEQ ID NO:4]
- production of reactive oxygen intermediates in antigen-presenting cells (dendritic cells [3]): shown to be induced
- production of reactive nitrogen intermediates in antigen-presenting cells [4]: shown to be induced
